Results as given in ChEMBL document CHEMBL1201862, “PubChem BioAssay data set” (2004).
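96-well plates; 48 h exposure; 5 concentrations. Endpoints by linear interpolation between flanking doses. Not reached: highest tested concentration assigned. GI50: concentration for 50% inhibition of growth.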 Active and inactive are the calls of the source. Rule as the data show it: active = GI50 up to about 1.1 µM and inactive = higher.

Assays:
Test in all cases: DTP human tumour cell line panel, 48 h
DU-145 = tested on: DU-145
HOP-62 = tested on: HOP-62
PC-3 = tested on: PC-3
UACC-257 = tested on: UACC-257
M14 = tested on: M14
RXF 393 = tested on: RXF 393
CAKI-1 = tested on: CAKI-1
HCT-116 = tested on: HCT-116
IGROV-1 = tested on: IGROV-1
HL-60 = tested on: HL-60
KM12 = tested on: KM12
SNB-19 = tested on: SNB-19
MOLT-4 = tested on: MOLT-4
SNB-75 = tested on: SNB-75
Malme-3M = tested on: Malme-3M
K562 = tested on: K562
786-0 = tested on: 786-0
A498 = tested on: A498
SW-620 = tested on: SW-620
OVCAR-3 = tested on: OVCAR-3
SR = tested on: SR
MDA-MB-231 = tested on: MDA-MB-231
OVCAR-8 = tested on: OVCAR-8
MCF7 = tested on: MCF7
SK-MEL-5 = tested on: SK-MEL-5
MDA-N = tested on: MDA-N
OVCAR-5 = tested on: OVCAR-5
HCC 2998 = tested on: HCC 2998
EKVX = tested on: EKVX
A549 = tested on: A549
TK-10 = tested on: TK-10
UO-31 = tested on: UO-31
NCI/ADR-RES = tested on: NCI/ADR-RES
SF-268 = tested on: SF-268
SF-539 = tested on: SF-539
COLO 205 = tested on: COLO 205
SK-OV-3 = tested on: SK-OV-3
MDA-MB-435 = tested on: MDA-MB-435
BT-549 = tested on: BT-549
ACHN = tested on: ACHN
NCI-H460 = tested on: NCI-H460
HCT-15 = tested on: HCT-15
UACC-62 = tested on: UACC-62
T47D = tested on: T47D
SN12C = tested on: SN12C
SK-MEL-28 = tested on: SK-MEL-28
CCRF-CEM = tested on: CCRF-CEM
SK-MEL-2 = tested on: SK-MEL-2
U-251 = tested on: U-251
RPMI-8226 = tested on: RPMI-8226
HT-29 = tested on: HT-29
NCI-H226 = tested on: NCI-H226
SF-295 = tested on: SF-295
LOX IMVI = tested on: LOX IMVI
NCI-H23 = tested on: NCI-H23
OVCAR-4 = tested on: OVCAR-4

## O=C1N[C@H]2c3c(Cl)sc(Cl)c3/C(=N/O)[C@H]2O1
DU-145
  GI50: > 100 µM (inactive)
HOP-62
  GI50: > 100 µM (inactive)
PC-3
  GI50: > 100 µM (inactive)
UACC-257
  GI50: > 100 µM (inactive)
M14
  GI50: > 100 µM (inactive)
RXF 393
  GI50: > 100 µM (inactive)
CAKI-1
  GI50: > 100 µM (inactive)
HCT-116
  GI50: 80.7 µM (inactive)
IGROV-1
  GI50: 72.3 µM (inactive)
HL-60
  GI50: 18.7 µM (inactive)
KM12
  GI50: > 100 µM (inactive)
SNB-19
  GI50: > 100 µM (inactive)
MOLT-4
  GI50: > 100 µM (inactive)
SNB-75
  GI50: > 100 µM (inactive)
Malme-3M
  GI50: > 100 µM (inactive)
K562
  GI50: 75.3 µM (inactive)
786-0
  GI50: > 100 µM (inactive)
A498
  GI50: > 100 µM (inactive)
SW-620
  GI50: > 100 µM (inactive)
OVCAR-3
  GI50: > 100 µM (inactive)
SR
  GI50: > 100 µM (inactive)
MDA-MB-231
  GI50: > 100 µM (inactive)
OVCAR-8
  GI50: > 100 µM (inactive)
MCF7
  GI50: > 100 µM (inactive)
SK-MEL-5
  GI50: > 100 µM (inactive)
MDA-N
  GI50: > 100 µM (inactive)
OVCAR-5
  GI50: > 100 µM (inactive)
HCC 2998
  GI50: > 100 µM (inactive)
EKVX
  GI50: > 100 µM (inactive)
A549
  GI50: > 100 µM (inactive)
TK-10
  GI50: > 100 µM (inactive)
UO-31
  GI50: > 100 µM (inactive)
NCI/ADR-RES
  GI50: > 100 µM (inactive)
SF-268
  GI50: > 100 µM (inactive)
SF-539
  GI50: 88.1 µM (inactive)
COLO 205
  GI50: > 100 µM (inactive)
SK-OV-3
  GI50: > 100 µM (inactive)
MDA-MB-435
  GI50: > 100 µM (inactive)
BT-549
  GI50: > 100 µM (inactive)
ACHN
  GI50: > 100 µM (inactive)
NCI-H460
  GI50: 76.4 µM (inactive)
HCT-15
  GI50: 67.9 µM
UACC-62
  GI50: > 100 µM (inactive)
T47D
  GI50: > 100 µM (inactive)
SN12C
  GI50: > 100 µM (inactive)
SK-MEL-28
  GI50: > 100 µM (inactive)
CCRF-CEM
  GI50: 52.2 µM (inactive)
SK-MEL-2
  GI50: > 100 µM (inactive)
U-251
  GI50: > 100 µM (inactive)
RPMI-8226
  GI50: > 100 µM (inactive)
HT-29
  GI50: > 100 µM (inactive)

## CC(=O)OCC1OC(SC2OC(COC(C)=O)C(OC(C)=O)C(OC(C)=O)C2OC(C)=O)C(OC(C)=O)C(OC(C)=O)C1OC(C)=O (configuration not stated)
DU-145
  GI50: > 100 µM (inactive)
HOP-62
  GI50: > 100 µM (inactive)
UACC-257
  GI50: > 100 µM (inactive)
RXF 393
  GI50: > 100 µM (inactive)
CAKI-1
  GI50: > 100 µM (inactive)
HCT-116
  GI50: > 100 µM (inactive)
IGROV-1
  GI50: > 100 µM (inactive)
HL-60
  GI50: > 100 µM (inactive)
KM12
  GI50: > 100 µM (inactive)
SNB-19
  GI50: > 100 µM (inactive)
MOLT-4
  GI50: > 100 µM (inactive)
SNB-75
  GI50: > 100 µM (inactive)
Malme-3M
  GI50: > 100 µM (inactive)
K562
  GI50: > 100 µM (inactive)
786-0
  GI50: > 100 µM (inactive)
A498
  GI50: 54.1 µM (inactive)
SW-620
  GI50: > 100 µM (inactive)
OVCAR-3
  GI50: > 100 µM (inactive)
NCI-H226
  GI50: > 100 µM (inactive)
SR
  GI50: > 100 µM (inactive)
MDA-MB-231
  GI50: > 100 µM (inactive)
OVCAR-8
  GI50: > 100 µM (inactive)
MCF7
  GI50: > 100 µM (inactive)
SK-MEL-5
  GI50: > 100 µM (inactive)
MDA-N
  GI50: > 100 µM (inactive)
OVCAR-5
  GI50: > 100 µM (inactive)
HCC 2998
  GI50: > 100 µM (inactive)
EKVX
  GI50: > 100 µM (inactive)
SF-295
  GI50: > 100 µM (inactive)
A549
  GI50: > 100 µM (inactive)
TK-10
  GI50: > 100 µM (inactive)
UO-31
  GI50: > 100 µM (inactive)
NCI/ADR-RES
  GI50: > 100 µM (inactive)
SF-268
  GI50: > 100 µM (inactive)
SF-539
  GI50: > 100 µM (inactive)
COLO 205
  GI50: > 100 µM (inactive)
SK-OV-3
  GI50: > 100 µM (inactive)
MDA-MB-435
  GI50: > 100 µM (inactive)
BT-549
  GI50: > 100 µM (inactive)
ACHN
  GI50: 52.5 µM (inactive)
NCI-H460
  GI50: > 100 µM (inactive)
HCT-15
  GI50: > 100 µM
UACC-62
  GI50: > 100 µM (inactive)
T47D
  GI50: > 100 µM (inactive)
LOX IMVI
  GI50: > 100 µM (inactive)
SN12C
  GI50: > 100 µM (inactive)
NCI-H23
  GI50: > 100 µM (inactive)
SK-MEL-28
  GI50: > 100 µM (inactive)
CCRF-CEM
  GI50: > 100 µM (inactive)
U-251
  GI50: > 100 µM (inactive)
OVCAR-4
  GI50: > 100 µM (inactive)
RPMI-8226
  GI50: > 100 µM (inactive)
HT-29
  GI50: > 100 µM (inactive)

## COC(=O)C(CCCCNC(=O)CNC(=O)OCc1ccccc1)NC(=O)C(CCCCNC(=O)CNC(=O)OCc1ccccc1)NC(=O)OCc1ccccc1 (configuration not stated)
DU-145
  GI50: 98.4 µM (inactive)
HOP-62
  GI50: > 100 µM (inactive)
PC-3
  GI50: 96.2 µM (inactive)
UACC-257
  GI50: > 100 µM (inactive)
M14
  GI50: > 100 µM (inactive)
CAKI-1
  GI50: > 100 µM (inactive)
HCT-116
  GI50: 84.7 µM (inactive)
IGROV-1
  GI50: > 10 µM (inactive)
HL-60
  GI50: 83.2 µM (inactive)
SNB-19
  GI50: 93.3 µM (inactive)
MOLT-4
  GI50: 33.4 µM (inactive)
SNB-75
  GI50: 62.7 µM (inactive)
Malme-3M
  GI50: 46.2 µM (inactive)
K562
  GI50: > 100 µM (inactive)
786-0
  GI50: 25 µM (inactive)
A498
  GI50: > 100 µM (inactive)
SW-620
  GI50: > 100 µM (inactive)
OVCAR-3
  GI50: 53.3 µM (inactive)
NCI-H226
  GI50: > 100 µM (inactive)
SR
  GI50: 41.8 µM (inactive)
MDA-MB-231
  GI50: > 100 µM (inactive)
OVCAR-8
  GI50: 57.3 µM (inactive)
MCF7
  GI50: 0.0805 µM (active)
SK-MEL-5
  GI50: 69.5 µM (inactive)
MDA-N
  GI50: 51.6 µM (inactive)
OVCAR-5
  GI50: > 100 µM (inactive)
HCC 2998
  GI50: 52.2 µM (inactive)
A549
  GI50: > 100 µM (inactive)
TK-10
  GI50: > 100 µM (inactive)
UO-31
  GI50: > 100 µM (inactive)
SF-268
  GI50: 78 µM (inactive)
MDA-MB-435
  GI50: 19.8 µM (inactive)
BT-549
  GI50: 20.7 µM (inactive)
ACHN
  GI50: > 100 µM (inactive)
NCI-H460
  GI50: > 100 µM (inactive)
HCT-15
  GI50: > 100 µM
UACC-62
  GI50: 40 µM (inactive)
T47D
  GI50: 20.3 µM (inactive)
LOX IMVI
  GI50: 87.9 µM (inactive)
SN12C
  GI50: > 100 µM (inactive)
NCI-H23
  GI50: > 100 µM (inactive)
SK-MEL-28
  GI50: 53.8 µM (inactive)
CCRF-CEM
  GI50: 42.8 µM (inactive)
SK-MEL-2
  GI50: 19 µM (inactive)
U-251
  GI50: 54 µM (inactive)
OVCAR-4
  GI50: 29.2 µM (inactive)
RPMI-8226
  GI50: 20.4 µM (inactive)
HT-29
  GI50: > 100 µM (inactive)
